Measurements as given in ChEMBL document CHEMBL5678818, “Discovery of potent SOS1 inhibitors that block RAS activation via disruption of the RAS-SOS1 interaction” (Proc Natl Acad Sci U S A, 2019).

How the values were obtained:
[1] = target: Proto-oncogene tyrosine-protein kinase Src (Homo sapiens) (UniProt P12931); assay: Inhibition of SRC (unknown origin) assessed as residual activity at 100 nM by KINOMEscan analysis relative to control
[2] = target: T1, Mitogen-activated protein kinase kinase kinase 15 (Homo sapiens) (UniProt Q6ZN16); assay: Inhibition of MAP3K15 (unknown origin) assessed as residual activity at 100 nM by KINOMEscan analysis relative to control
T1 sequence (whole entry): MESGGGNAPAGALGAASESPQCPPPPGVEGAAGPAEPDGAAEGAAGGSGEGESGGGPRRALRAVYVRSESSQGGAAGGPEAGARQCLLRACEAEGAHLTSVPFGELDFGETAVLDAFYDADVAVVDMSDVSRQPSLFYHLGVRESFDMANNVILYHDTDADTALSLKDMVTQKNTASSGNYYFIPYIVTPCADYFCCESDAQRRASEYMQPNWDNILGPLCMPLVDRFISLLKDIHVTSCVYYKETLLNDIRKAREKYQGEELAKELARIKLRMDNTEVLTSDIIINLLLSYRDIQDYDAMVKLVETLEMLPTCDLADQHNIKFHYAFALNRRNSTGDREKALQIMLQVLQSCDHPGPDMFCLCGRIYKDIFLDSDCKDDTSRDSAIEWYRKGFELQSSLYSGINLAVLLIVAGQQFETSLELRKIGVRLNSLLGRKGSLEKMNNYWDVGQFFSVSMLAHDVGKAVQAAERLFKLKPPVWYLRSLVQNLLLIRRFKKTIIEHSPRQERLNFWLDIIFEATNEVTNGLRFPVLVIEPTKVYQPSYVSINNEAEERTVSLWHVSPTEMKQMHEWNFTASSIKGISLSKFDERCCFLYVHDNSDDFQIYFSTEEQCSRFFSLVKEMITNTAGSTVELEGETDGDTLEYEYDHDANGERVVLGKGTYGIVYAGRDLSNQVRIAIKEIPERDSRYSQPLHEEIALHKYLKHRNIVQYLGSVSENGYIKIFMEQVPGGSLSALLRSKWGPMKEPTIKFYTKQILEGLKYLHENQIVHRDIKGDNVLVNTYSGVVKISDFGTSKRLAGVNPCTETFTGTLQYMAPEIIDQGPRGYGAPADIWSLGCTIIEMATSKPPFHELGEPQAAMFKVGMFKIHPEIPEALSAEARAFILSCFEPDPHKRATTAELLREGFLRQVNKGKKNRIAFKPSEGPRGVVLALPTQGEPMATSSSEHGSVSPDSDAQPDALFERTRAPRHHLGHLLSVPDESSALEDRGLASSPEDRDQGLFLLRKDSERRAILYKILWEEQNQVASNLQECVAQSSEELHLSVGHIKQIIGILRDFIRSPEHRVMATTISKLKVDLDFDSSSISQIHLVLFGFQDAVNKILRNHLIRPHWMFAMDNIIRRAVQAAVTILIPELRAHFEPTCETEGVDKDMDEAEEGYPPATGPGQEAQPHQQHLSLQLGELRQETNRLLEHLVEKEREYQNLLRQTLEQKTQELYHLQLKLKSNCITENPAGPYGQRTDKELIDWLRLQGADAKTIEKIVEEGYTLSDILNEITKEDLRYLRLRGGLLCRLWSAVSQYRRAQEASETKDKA

[3] = target: Casein kinase II subunit alpha' (Homo sapiens) (UniProt P19784); assay: Inhibition of CSNK2A2 (unknown origin) assessed as residual activity at 100 nM by KINOMEscan analysis relative to control
Chain of Casein kinase II subunit alpha' (Homo sapiens) (P19784 whole entry, looked up, canonical isoform): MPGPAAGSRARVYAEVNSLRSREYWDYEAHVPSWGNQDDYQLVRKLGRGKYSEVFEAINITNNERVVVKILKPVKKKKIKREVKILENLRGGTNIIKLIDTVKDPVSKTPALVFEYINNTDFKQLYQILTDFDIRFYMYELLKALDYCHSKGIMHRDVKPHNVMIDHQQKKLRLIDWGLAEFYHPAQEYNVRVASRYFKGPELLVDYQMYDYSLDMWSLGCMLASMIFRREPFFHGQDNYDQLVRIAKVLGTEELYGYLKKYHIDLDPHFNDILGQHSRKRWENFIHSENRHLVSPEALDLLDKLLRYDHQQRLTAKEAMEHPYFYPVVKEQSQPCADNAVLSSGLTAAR

[4] = system: Phosphatidylinositol 4,5-bisphosphate 3-kinase catalytic subunit alpha isoform (Homo sapiens), P42336 [I800L]; assay: Inhibition of PIK3CA I800L mutant (unknown origin) assessed as residual activity at 100 nM by KINOMEscan analysis relative to control
Chain of Phosphatidylinositol 4,5-bisphosphate 3-kinase catalytic subunit alpha isoform (Homo sapiens), P42336 [I800L] (P42336 whole entry I800L, canonical isoform): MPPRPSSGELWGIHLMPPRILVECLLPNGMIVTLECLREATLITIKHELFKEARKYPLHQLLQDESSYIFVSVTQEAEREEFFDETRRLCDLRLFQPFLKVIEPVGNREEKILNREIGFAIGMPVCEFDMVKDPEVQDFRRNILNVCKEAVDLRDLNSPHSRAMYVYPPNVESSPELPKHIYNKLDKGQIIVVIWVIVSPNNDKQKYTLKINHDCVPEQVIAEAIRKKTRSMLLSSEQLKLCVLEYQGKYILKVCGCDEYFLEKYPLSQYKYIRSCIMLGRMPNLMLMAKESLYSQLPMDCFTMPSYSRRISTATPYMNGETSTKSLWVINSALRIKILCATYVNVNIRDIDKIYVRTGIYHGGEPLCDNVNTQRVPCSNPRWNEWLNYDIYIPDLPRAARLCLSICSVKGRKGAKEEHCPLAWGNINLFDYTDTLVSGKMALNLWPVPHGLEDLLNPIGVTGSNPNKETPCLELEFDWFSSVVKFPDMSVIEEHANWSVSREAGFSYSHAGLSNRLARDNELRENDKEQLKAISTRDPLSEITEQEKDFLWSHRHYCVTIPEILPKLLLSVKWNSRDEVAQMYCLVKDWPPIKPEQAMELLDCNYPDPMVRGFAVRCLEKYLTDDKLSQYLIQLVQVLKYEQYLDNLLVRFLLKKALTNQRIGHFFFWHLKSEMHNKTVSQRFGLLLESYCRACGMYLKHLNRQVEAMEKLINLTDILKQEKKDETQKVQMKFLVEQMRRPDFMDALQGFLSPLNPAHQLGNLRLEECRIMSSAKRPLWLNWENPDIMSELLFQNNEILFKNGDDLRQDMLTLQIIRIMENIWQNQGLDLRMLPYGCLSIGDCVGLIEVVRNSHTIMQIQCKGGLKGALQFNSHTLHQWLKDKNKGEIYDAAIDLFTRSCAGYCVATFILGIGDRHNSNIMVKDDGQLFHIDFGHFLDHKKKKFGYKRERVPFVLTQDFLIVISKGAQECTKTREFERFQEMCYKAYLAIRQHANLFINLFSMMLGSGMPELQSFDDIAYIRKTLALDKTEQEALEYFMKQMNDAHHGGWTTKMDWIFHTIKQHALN

[5] = target: Dual specificity mitogen-activated protein kinase kinase 2 (Homo sapiens) (UniProt P36507); assay: Inhibition of MEK2 (unknown origin) assessed as residual activity at 100 nM by KINOMEscan analysis relative to control
Chain of Dual specificity mitogen-activated protein kinase kinase 2 (Homo sapiens) (P36507 whole entry): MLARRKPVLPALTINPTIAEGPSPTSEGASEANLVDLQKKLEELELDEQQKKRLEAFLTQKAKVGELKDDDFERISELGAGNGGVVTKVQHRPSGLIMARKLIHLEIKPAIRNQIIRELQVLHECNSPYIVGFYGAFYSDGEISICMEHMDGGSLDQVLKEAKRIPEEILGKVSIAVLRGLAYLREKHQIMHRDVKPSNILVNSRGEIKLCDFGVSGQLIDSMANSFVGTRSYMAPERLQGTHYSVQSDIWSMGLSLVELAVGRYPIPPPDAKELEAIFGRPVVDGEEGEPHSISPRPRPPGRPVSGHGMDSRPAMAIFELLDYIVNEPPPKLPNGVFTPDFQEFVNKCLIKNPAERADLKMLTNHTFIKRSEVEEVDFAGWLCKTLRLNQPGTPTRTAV

[6] = target: Receptor-type tyrosine-protein kinase FLT3 (Homo sapiens) (UniProt P36888); assay: Inhibition of autoinhibited FLT3 (unknown origin) assessed as residual activity at 100 nM by KINOMEscan analysis relative to control
Chain of Receptor-type tyrosine-protein kinase FLT3 (Homo sapiens) (P36888 whole entry, the tested form may be a part): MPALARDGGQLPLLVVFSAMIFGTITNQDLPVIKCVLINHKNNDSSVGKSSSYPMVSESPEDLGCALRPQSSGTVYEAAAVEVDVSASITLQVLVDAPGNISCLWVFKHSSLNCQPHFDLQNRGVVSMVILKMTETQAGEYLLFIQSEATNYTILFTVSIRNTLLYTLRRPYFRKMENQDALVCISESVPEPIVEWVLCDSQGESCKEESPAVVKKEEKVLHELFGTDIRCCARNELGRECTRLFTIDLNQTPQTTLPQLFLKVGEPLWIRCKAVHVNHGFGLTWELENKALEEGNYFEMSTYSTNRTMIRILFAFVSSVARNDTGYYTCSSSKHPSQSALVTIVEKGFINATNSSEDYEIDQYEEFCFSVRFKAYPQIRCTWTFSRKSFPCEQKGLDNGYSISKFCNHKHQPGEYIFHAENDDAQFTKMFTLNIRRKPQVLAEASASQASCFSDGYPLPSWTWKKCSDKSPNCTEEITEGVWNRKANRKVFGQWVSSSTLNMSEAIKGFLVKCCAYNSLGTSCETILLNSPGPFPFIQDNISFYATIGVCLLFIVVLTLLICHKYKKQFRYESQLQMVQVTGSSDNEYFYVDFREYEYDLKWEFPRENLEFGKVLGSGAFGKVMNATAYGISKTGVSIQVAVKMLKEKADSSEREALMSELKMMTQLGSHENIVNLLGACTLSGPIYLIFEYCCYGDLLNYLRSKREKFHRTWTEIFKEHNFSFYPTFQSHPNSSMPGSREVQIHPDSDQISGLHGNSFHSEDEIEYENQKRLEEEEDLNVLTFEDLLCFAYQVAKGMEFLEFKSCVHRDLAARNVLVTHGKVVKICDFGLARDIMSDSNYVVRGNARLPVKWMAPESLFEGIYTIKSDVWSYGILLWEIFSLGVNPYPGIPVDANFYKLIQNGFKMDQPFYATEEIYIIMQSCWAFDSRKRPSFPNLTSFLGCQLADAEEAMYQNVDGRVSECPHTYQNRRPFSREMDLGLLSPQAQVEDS

[7] = target: Ribosomal protein S6 kinase alpha-5 (Homo sapiens) (UniProt O75582); assay: Inhibition of C-terminal RPS6KA5 kinetic domain 2 (unknown origin) assessed as residual activity at 100 nM by KINOMEscan analysis relative to control
Chain of Ribosomal protein S6 kinase alpha-5 (Homo sapiens) (O75582 whole entry, looked up, the tested form may be a part): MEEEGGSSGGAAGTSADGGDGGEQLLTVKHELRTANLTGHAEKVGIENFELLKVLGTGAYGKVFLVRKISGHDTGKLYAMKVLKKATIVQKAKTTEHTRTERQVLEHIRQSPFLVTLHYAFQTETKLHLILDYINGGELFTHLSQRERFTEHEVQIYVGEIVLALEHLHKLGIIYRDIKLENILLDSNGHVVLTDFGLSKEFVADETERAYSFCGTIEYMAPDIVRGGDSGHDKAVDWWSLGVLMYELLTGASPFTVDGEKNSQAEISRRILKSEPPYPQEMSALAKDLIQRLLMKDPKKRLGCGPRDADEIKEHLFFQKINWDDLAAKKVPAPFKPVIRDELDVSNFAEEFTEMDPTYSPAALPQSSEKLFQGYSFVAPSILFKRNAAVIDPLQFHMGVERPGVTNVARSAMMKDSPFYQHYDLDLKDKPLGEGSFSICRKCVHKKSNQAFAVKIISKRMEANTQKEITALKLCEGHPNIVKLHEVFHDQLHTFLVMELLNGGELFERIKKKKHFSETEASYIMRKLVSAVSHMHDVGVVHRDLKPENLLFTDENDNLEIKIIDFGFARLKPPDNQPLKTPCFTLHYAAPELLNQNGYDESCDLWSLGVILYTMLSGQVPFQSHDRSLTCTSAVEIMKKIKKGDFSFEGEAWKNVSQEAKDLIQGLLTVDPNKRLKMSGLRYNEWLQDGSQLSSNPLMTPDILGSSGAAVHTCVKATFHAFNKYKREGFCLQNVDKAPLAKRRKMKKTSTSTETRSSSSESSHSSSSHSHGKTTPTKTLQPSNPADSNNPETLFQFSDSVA

[8] = target: Serine/threonine-protein kinase tousled-like 2 (Homo sapiens) (UniProt Q86UE8); assay: Inhibition of TLK2 (unknown origin) assessed as residual activity at 100 nM by KINOMEscan analysis relative to control
Chain of Serine/threonine-protein kinase tousled-like 2 (Homo sapiens) (Q86UE8 whole entry, looked up): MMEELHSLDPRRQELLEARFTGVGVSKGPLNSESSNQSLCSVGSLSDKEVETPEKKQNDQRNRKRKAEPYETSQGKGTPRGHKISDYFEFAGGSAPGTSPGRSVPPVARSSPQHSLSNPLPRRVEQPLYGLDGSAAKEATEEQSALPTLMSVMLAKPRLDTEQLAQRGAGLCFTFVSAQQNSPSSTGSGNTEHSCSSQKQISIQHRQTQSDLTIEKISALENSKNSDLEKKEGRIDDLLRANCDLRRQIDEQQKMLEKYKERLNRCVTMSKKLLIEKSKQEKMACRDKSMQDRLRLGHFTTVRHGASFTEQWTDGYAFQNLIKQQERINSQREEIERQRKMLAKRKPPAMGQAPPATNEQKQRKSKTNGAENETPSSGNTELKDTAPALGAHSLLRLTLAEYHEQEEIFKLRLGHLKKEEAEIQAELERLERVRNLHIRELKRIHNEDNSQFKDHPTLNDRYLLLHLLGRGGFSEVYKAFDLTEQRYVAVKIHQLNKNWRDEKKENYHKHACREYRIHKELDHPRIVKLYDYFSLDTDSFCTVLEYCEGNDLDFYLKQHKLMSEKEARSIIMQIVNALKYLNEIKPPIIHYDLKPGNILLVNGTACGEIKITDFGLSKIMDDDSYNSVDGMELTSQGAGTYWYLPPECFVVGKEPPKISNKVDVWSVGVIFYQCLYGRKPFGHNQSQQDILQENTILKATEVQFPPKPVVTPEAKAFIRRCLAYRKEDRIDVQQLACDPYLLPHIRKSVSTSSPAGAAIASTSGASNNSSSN

[9] = target: T2, Serine/threonine-protein kinase BRSK2 (Homo sapiens) (UniProt Q8IWQ3); assay: Inhibition of BRSK2 (unknown origin) assessed as residual activity at 100 nM by KINOMEscan analysis relative to control
T2 sequence (whole entry): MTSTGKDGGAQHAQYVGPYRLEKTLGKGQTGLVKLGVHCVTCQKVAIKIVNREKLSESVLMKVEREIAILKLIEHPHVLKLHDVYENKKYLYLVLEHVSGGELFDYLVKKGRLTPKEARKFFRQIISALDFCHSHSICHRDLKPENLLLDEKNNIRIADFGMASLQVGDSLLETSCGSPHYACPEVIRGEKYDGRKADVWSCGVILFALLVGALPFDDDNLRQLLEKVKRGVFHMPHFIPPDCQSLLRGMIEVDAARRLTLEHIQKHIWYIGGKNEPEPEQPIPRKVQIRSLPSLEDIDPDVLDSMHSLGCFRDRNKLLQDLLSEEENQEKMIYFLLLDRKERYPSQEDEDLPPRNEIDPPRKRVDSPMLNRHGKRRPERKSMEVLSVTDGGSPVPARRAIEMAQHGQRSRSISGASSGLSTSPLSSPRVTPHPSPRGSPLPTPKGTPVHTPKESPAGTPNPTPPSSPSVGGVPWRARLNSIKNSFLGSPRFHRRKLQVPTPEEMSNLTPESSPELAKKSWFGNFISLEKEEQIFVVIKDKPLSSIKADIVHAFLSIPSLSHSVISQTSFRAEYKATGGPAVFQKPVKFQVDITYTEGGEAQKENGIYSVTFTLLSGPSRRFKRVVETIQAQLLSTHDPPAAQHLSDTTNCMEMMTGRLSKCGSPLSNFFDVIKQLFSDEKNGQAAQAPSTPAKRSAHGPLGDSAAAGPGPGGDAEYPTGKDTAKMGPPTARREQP

Chain of Proto-oncogene tyrosine-protein kinase Src (Homo sapiens) (P12931 2-536 limits assumed): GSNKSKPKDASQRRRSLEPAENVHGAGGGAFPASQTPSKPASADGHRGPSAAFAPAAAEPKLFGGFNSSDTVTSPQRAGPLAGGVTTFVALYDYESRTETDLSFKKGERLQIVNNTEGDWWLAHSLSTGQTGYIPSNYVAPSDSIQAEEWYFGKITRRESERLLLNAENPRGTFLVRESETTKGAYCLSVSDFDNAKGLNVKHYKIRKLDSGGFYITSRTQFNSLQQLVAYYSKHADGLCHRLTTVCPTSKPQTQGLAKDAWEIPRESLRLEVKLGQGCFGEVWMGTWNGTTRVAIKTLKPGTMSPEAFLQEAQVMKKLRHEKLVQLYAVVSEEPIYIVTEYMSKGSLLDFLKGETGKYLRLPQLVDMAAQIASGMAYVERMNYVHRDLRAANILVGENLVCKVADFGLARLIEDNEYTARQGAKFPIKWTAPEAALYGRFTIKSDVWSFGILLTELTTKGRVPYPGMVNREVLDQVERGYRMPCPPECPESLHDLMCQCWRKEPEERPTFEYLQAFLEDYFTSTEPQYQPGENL

In the case of `COc1cc2ncnc(N[C@H](C)c3cccc4ccccc34)c2cc1OC`, the Activity [1] is reported as 90%, the Activity [2] is reported as 86% and the Activity [3] is reported as 87%. It also gave an Activity [4] of 98%, an Activity [5] of 90% and an Activity [6] of 88%. The Activity [7] was 52%, the Activity [8] was 91% and the Activity [9] was 100%.
